SMILES strings stand for the structures.

This note sets out measurements from patent US7943162B2, “Drug delivery device” (Alcon, Inc., priority 1999, dated 2011).

The data set can be described thus: ocular pharmacokinetic study with rabbits implanted with ophthalmic drug delivery device 50 (LC-MS/MS tissue concentration). The class given is in vivo, New Zealand White rabbits. The conditions noted are these: device 50 implanted on outer sclera below Tenon's capsule. The source says: Device 50 was constructed as shown in FIGS. 5 through 6B, with the following dimensions. […] Inner core 106 was a cylindrical tablet with a diameter of about 5.0 mm and a thickness of about 1.5 mm. […] The pharmaceutically active agent used in tablet 106 was 4,9(11)-Pregnadien-17α,21-diol-3,20-dione, an angiostatic steroid sold by Steraloids, Inc. of Wilton, N.H., and which is more fully disclosed in U.S. Pat. Nos. 5,770,592 and 5,679,666. The formulation of tablet 106 consisted of 99.75 weight percent 4,9(11)-Pregnadien-17α,21-diol-3,20-dione, and 0.25 weight percent magnesium stearate.
At one week after implantation, 4 rabbits were euthanized and their right eyes were enucleated. The device 50 was removed from the eyes, and the location of tablet 106 was marked on their sclerae. Following the removal of the anterior segment and the vitreous of each eye and inversion of the thus formed eye-cup, a 10 mm diameter circular zone of retinal tissue, concentric with and below the location of tablet 106 on the sclera, was harvested (the “target site”). […] All these tissues were separately homogenized, and the concentration of angiostatic steroid in each of these tissues was determined via an ocular pharmacokinetic study using high performance liquid chromatography and mass spectrometry analysis (LC-MS/MS). […]

Turning to `C[C@]12CCC(=O)C=C1CC[C@@H]1C2=CC[C@@]2(C)[C@H]1CC[C@]2(O)C(=O)CO` [4,9(11)-Pregnadien-17α,21-diol-3,20-dione], where the note is “right eye, tablet 99.75 wt% drug, target site below tablet, 1, 3, 6, 9, 12 weeks after implantation, up to twelve weeks”, the “mean concentration of angiostatic steroid in the retina and the choroid at the target site as a function of time” value is “pharmaceutically effective and generally constant amount”. Moreover, the “levels of angiostatic steroid in the retina and the choroid at the second and third sites” value (second site remote from the target site, on the other side of the optic nerve, third site between the second site and the target site) is reported as “at or near zero”.
